Laboratory results taken from ChEMBL document CHEMBL1201862, “PubChem BioAssay data set” (2004).
The source made the active and inactive calls.

How the values were obtained:
[1] = microbe, parasite or virus in culture; assay type: functional; details: Mycobacterium tuberculosis
[2] = THP-1 cell cytotoxicity, dose response, cytotoxicity control for non-replicating M. tuberculosis project (AID 489025); assay type: functional
[3] = Vero E6 cell cytotoxicity, dose response, cytotoxicity control for non-replicating M. tuberculosis project, secondary assay (AID 492998); assay type: functional, VeroE6; details: Vero C1008
[4] = molecular target: Neurotensin receptor type 1 (Homo sapiens, UniProt P30989); assay type: functional;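 note: Image-based confirmatory dose-response assay measuring agonist activity at NTR1; NTR1-expressing U2OS osteosarcoma cells imaged for beta-arrestin GFP spot formation; agonist potency where compounds increase beta-arrestin recruitment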
cells [5] = assay type: functional
[6] = molecular target: Heat shock protein HSP 90-alpha (Homo sapiens, UniProt P07900); assay type: functional, organism-based
INS1 = assay: INS-1E survival protection against cytokine death – cell-based, luminescence, retest, dose response (AID 449756); assay type: functional; details: Rattus norvegicus;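 note: cell death triggered by IL-1 beta plus TNF-alpha plus IFN-gamma mixture; protective hits raise ATP signal compared with cytokine alone wells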
Bcl-2-like protein 10 = molecular target: T1, Bcl-2-like protein 10 (Homo sapiens, UniProt Q9HD36); assay: Bcl-B/TR3 peptide binding disruption – biochemical, fluorescence polarization, FITC-TR3 peptide, selectivity assay for Bfl-1 inhibitor project, primary screen (AID 748);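 note: fluorescence polarization from a fluorescein-labelled TR3 peptide binding purified Bcl-B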
T1 sequence (Q9HD36 whole entry): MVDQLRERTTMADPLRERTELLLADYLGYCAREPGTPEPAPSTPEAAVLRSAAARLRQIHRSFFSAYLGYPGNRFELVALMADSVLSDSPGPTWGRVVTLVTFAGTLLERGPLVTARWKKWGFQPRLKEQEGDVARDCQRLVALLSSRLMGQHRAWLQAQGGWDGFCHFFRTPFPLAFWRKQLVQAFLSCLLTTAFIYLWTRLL

Troponin, cardiac muscle = Troponin, cardiac muscle (Homo sapiens, UniProt P19429+P45379+P63316); assay: Fluorescence-based biochemical high throughput dose response assay for activators of the calcium sensitivity of cardiac Regulated Thin Filaments (RTF). [Related pubchem assays (depositor defined):AID493008, AID493018, AID504382, AID504383]; assay type: protein-complex assay
[7] = molecular target: T2, Lysosomal acid glucosylceramidase (Homo sapiens, UniProt P04062); assay: Dose response cell-based high throughput screening assay to identify enhancers of beta-glucosidase activity. [Related pubchem assays: 784 ]; assay type: functional
T2 sequence (P04062 whole entry): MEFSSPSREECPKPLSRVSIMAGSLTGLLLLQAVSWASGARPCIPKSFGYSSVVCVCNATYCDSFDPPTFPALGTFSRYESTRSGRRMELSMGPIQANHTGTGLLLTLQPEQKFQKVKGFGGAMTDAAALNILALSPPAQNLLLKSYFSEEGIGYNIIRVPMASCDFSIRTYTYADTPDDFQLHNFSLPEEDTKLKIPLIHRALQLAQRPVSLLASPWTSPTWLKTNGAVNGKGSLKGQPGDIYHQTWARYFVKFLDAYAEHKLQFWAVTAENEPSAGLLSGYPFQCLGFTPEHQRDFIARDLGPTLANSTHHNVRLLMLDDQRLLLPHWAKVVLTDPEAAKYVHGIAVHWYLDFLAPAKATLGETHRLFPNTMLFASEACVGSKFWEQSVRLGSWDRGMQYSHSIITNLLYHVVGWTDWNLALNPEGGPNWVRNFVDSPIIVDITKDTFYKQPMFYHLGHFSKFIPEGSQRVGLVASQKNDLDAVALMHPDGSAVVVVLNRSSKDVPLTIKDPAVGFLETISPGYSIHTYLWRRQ

[8] = molecular target: G-protein coupled receptor 55 (Homo sapiens, UniProt Q9Y2T6); assay: selective activators of receptor GPR55 – imaging, U2OS cells, beta-arrestin-GFP redistribution, primary screen (AID 1961); assay type: functional
Cytochrome P450 3A4 = Cytochrome P450 3A4 (Homo sapiens, UniProt P08684); details: Potency;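 note: confirmatory qHTS run detecting inhibitors and substrates of CYP3A4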
Bcl-2-related protein A1 = molecular target: T3, Bcl-2-related protein A1 (Mus musculus, UniProt Q07440); assay type: functional;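 note: confirmatory dose–response counterscreen on Bfl-1, used to check hits from a UBC13 polyubiquitin inhibitor campaign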
T3 sequence (Q07440 whole entry): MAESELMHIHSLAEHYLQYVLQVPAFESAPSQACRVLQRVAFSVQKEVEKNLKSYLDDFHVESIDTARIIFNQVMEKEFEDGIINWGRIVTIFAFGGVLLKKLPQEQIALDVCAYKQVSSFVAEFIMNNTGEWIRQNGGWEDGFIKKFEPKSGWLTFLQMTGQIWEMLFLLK

[9] = molecular target: T4, Ubiquitin-conjugating enzyme E2 N (Homo sapiens, UniProt P61088); assay type: functional
T4 sequence (P61088 whole entry): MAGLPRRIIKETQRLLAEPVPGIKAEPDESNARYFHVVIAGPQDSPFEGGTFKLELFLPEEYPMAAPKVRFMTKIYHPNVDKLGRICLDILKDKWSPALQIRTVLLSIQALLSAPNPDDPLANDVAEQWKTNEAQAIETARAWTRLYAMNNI

[10] = molecular target: T4, Ubiquitin-conjugating enzyme E2 N; assay type: functional; remark: listed apart in the source
[11] = viability of uninfected HEp-2 cells – cell-based, HTS, cytotoxicity control for RSV inhibitor project, dose response (AID 2410); assay type: functional; details: human respiratory syncytial virus
[12] = molecular target: Glyceraldehyde-3-phosphate dehydrogenase (Homo sapiens, UniProt P04406)
[13] = Trypanosoma cruzi growth suppression in host cells – NIH3T3 host cells, beta-gal luminescence, confirmation (AID 2044); assay type: functional, cell-based;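 note: intracellular parasites grown in NIH/3T3 mouse fibroblasts as host cells; luminescent beta-galactosidase reporter signal from transgenic T. cruzi replicating inside host cells; inhibitors lower the luminescence signal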
[14] = NIH3T3 cell viability loss – ATP luminescence, mouse fibroblasts, counter-screen, dose response (AID 2010); assay type: functional, cell-based;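 note: cells exposed to compound for about 90 hours before reading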
[15] = molecular target: Induced myeloid leukemia cell differentiation protein Mcl-1 (Homo sapiens, UniProt Q07820); assay type: functional
Cytochrome P450 1A2 = molecular target: T5, Cytochrome P450 1A2 (Homo sapiens, UniProt P05177);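 note: PubChem cytochrome P450 panel assay, CYP1A2 panel member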
T5 sequence (P05177 whole entry): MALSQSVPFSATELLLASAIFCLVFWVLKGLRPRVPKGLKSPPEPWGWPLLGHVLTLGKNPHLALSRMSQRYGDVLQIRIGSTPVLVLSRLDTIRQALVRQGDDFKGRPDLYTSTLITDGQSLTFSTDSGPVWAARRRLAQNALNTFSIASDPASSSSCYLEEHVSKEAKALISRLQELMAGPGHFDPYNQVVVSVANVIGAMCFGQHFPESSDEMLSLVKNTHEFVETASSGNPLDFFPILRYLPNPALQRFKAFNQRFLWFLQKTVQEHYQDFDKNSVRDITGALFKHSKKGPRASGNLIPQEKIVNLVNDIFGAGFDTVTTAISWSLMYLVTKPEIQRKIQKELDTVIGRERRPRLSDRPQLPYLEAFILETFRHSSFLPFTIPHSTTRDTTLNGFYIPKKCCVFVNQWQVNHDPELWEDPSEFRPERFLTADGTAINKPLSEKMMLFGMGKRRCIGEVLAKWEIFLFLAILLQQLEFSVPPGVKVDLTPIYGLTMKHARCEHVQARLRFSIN

[16] = molecular target: DNA dC->dU-editing enzyme APOBEC-3G (Homo sapiens, UniProt Q9HC16); assay: Dose Response confirmation of small molecule APOBEC3G DNA Deaminase Inhibitors via a fluorescence-based single-stranded DNA deaminase assay. [Related pubchem assays (depositor defined):AID493012, AID493028]; assay type: functional
[17] = Luminescence Cell-Based Dose Retest to Confirm Inhibitors of Cancer Stem Cells. [Related pubchem assays (depositor defined):AID2717, AID2721]; assay type: functional; details: Homo sapiens
[18] = NIH-3T3 fibroblast cytotoxicity, dose response, cytotoxicity control, cell-based, fluorescence, Alamar Blue, secondary assay (AID 2327); assay type: functional;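 note: NIH-3T3 mouse fibroblasts cultured with fluconazole at 8 µg/mL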
HEK293 [19] = assay: inhibition of NOD1-driven NF-kB reporter – cell-based, luminescence, uHTS, primary screen (AID 1578); assay type: functional; details: Homo sapiens
[20] = system: Streptococcus sp. 'group A'; assay: Streptococcus pyogenes SK(-)GAS viability under kanamycin – luminescence, BacTiterGlo, confirmation, counter-screen for streptokinase expression inhibitor project, dose response (AID 1900); assay type: functional, organism-based
HEK293 [21] = assay: cells; assay type: functional, cell-based; details: Homo sapiens
cells [22] = assay type: functional, cell-based
[23] = fluconazole-exposed Candida albicans growth modulators – fluorescence, retest, confirmation (AID 2467); assay type: functional, cell-based
HEK293 [24] = assay: cells; assay type: functional, cell-based; details: Homo sapiens; remark: listed apart in the source
[25] = molecular target: Nucleotide-binding oligomerization domain-containing protein 2 (Homo sapiens, UniProt Q9HC29); assay: inhibition of NOD2-driven NF-kB reporter – cell-based, luminescence, uHTS, HEK293 (AID 1566); assay type: functional
HEK293 [26] = assay: NOD2 signaling inhibitors in MDP-stimulated cells, cell-based, uHTS, luminescence (AID 2001); assay type: functional; details: Homo sapiens
cells [27] = assay type: functional, cell-based; remark: listed apart in the source
Streptococcus = assay: GAS UMAA2166 growth inhibition – luminescence, BacTiterGlo, counter-screen for streptokinase expression inhibitor project, dose response (AID 1915); assay type: functional, organism-based;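 note: potency for reduction of bacterial viability or growth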

Nc1ccccc1C#CC(=O)c1ccccc1
CC50 [1]: 16.9 µM (active)
CC50 [2]: 23.5 µM (active)
CC50 [3]: 17.4 µM (active)
EC50 [4]: 8.09 µM (active)
IC50 (cells [5]): 4.2 µM (active)
AC50 [6]: 5.42 µM (active)
AC50 (INS1): 7.81 µM (active)

Cc1cc(C)nc(Nc2ccc(N3CCCC3)cc2)n1
IC50 (Bcl-2-like protein 10): 61.9 µM (inactive)

C=CCOc1ccc(Br)cc1CNCC
EC50 (Troponin, cardiac muscle): > 71.5 µM (inactive)

Cc1ccccc1OCC(=O)N(Cc1cccs1)C1CCS(=O)(=O)C1 (stereo unspecified)
EC50 [7]: > 50 µM (not active)

CCOc1ccc(C2CC(c3c(O)oc4ccccc4c3=O)=NN2c2ccccc2)cc1OC (stereo unspecified)
EC50 [8]: 8.61 µM (active)

C=CCn1c(S)nnc1-c1c[nH]c2ccccc12
EC50 [7]: > 50 µM (not active)

COc1ccc(N)c(OC)c1
AC50 (Cytochrome P450 3A4): 25.1 µM (inconclusive)

O=C(c1ccc(S(=O)(=O)N2CCCC2)cc1)N1CCC(CN2C(=O)c3cccc4cccc(c34)C2=O)CC1
IC50 (Bcl-2-related protein A1): > 20 µM (inactive)
IC50 [9]: 6.28 µM (active)
IC50 [10]: 8.21 µM (active)

CCOC(=O)c1nnc(-c2ccc(C)cc2)nc1Oc1ccc(Cl)cc1Cl
CC50 [11]: 14.1 µM (active)
EC50 [8]: 12.4 µM (inactive)

O=C(O)CSc1nc(-c2ccccc2)cs1
IC50 [12]: > 100 µM (not active)

Cc1nc(NC(=O)c2ccco2)sc1-c1csc(Nc2ccc(Cl)cc2Cl)n1
IC50 (Bcl-2-like protein 10): > 100 µM (inactive)
EC50 [13]: 0.537 µM (active)
EC50 [14]: > 60 µM (not active)
IC50 [15]: 1.56 µM (active)
AC50 (Cytochrome P450 1A2): 15.8 µM (inconclusive)

CN1C[C@@H]2C(c3ccc(Cl)nc3)C3(c4ccc(C#N)cc4)CC2(C3)[C@H]1c1ccccc1 (stereo partly specified)
AC50 (Cytochrome P450 3A4): 15.8 µM (inconclusive)

Cc1[nH]c(=O)[nH]c(=S)c1C(=O)Nc1ccc(Cl)c(Cl)c1
IC50 [16]: 9.67 µM (active)

O=C(O)c1ccccc1CSc1nnnn1-c1ccccc1
EC50 (Troponin, cardiac muscle): > 71.5 µM (inactive)

CC1CCN(CCCNC(=O)c2ccc3c(=O)n(Cc4ccc(Cl)cc4)c(=S)[nH]c3c2)CC1
AC50 [17]: 6.37 µM (active)
IC50 [9]: > 20 µM (inactive)
EC50 [4]: 17.9 µM (active)

COc1cccc(/C=N/NC(=O)c2c(C)nc3ccc(Cl)cn23)c1O
EC50 [18]: > 160 µM (inactive)
EC50 (HEK293 [19]): > 20 µM (inactive)
EC50 [20]: 3.25 µM (active)
IC50 (HEK293 [21]): > 20 µM (inactive)
EC50 (cells [22]): 6.42 µM (active)
EC50 [23]: 1.36 µM (active)
IC50 (HEK293 [24]): > 20 µM (inactive)
EC50 [25]: > 20 µM (inactive)
IC50 (HEK293 [26]): > 20 µM (inactive)
EC50 (cells [27]): > 350 µM (not active)
EC50 (Streptococcus): 7.14 µM (active)
AC50 (INS1): 0.879 µM (active)

O=C(CSCc1ccc([N+](=O)[O-])cc1)N/N=C/c1ccncc1
IC50 (Bcl-2-related protein A1): > 20 µM (inactive)
IC50 [9]: 17.3 µM (active)
IC50 [10]: > 20 µM (inactive)

CCOC(=O)c1c(C)cc(OC)cc1O [ETHYL EVERNINATE]
AC50 (Cytochrome P450 3A4): 31.6 µM (inconclusive)
